In paper PMC4917448 (Journal of biomolecular screening, 2016):
“Also recorded” adds a separate entry of the source.

Columns and labels:
HDAC I/II [1] = assay: HDAC-Glo I/II assay in HCT116 cells; format: cell-based, human; conditions: for HDAC-Glo: Efficacy, HCT116 / Efficacy, HDAC-Glo I/II HCT116 assay: maximal response; for HDAC activity inhibited, HDAC-Glo I/II: HCT116, qHTS primary screening of NPC library; for HDAC I/II inhibitory activity (in words): HCT116 and HEK293 cells, validation with epigenetics libraries; for IC50, HDAC-Glo activity: HCT116, validation with epigenetics libraries, 0.7 nM-46 μM
HDAC I/II [2] = assay: HDAC-Glo I/II assay in human neural stem cells; format: cell-based; conditions: cherry-pick confirmation; for HDAC-Glo: Efficacy, hNSC: maximal response; for IC50: read-out: HDAC-Glo: IC50, hNSC, 11 concentrations, 1 hour; for inhibition of HDAC-Glo I/II luminescence signals: hNSCs, Figure 2
human neural stem cells = assay: CellTiter-Glo cell viability assay in hNSC; format: cell-based; conditions: cherry-pick confirmation, 1 hour
HCT116 cells = assay: CellTiter-Glo cell viability assay in HCT116; format: cell-based, human; conditions: cherry-pick confirmation, 1 hour
[3] = system: class I and II HDAC enzymes; assay: Panel of fluorogenic assays against ten class I and II HDAC isoforms; format: biochemical, human; conditions: 20 μM; for inhibition of HDAC isoforms (in words): Figure 3
HDAC3 = HDAC3 (Homo sapiens, UniProt O15379); assay: Fluorogenic isoform-specific HDAC assay, HDAC3; format: biochemical; conditions: 20 μM
Chain of HDAC3 (O15379 whole entry, canonical isoform): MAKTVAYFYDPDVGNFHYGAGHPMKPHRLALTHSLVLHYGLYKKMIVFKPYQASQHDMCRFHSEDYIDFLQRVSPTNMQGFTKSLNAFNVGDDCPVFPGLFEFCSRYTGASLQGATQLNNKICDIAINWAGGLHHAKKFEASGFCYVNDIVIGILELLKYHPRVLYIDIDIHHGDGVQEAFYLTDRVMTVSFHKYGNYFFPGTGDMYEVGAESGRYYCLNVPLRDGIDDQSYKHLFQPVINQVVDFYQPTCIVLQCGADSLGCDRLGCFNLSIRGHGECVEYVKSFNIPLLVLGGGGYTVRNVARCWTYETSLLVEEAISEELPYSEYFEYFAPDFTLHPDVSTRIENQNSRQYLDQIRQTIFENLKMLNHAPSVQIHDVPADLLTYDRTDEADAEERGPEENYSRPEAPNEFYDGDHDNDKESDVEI
Chain of HDAC3 (Q9Y618 395-489 partner limits assumed): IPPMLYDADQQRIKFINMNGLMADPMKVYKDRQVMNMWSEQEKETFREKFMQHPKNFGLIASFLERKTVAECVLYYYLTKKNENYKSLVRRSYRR

HDAC I/II [4] = assay: HDAC-Glo I/II assay in HEK293 cells; format: cell-based, human; conditions: HEK293, validation with epigenetics libraries, 0.7 nM-46 μM
[5] = read-out: HDAC-Glo: IC50, HCT116, cherry-pick confirmation, 11 concentrations, 1 hour
[6] = read-out: IC50, HDAC-Glo I/II HCT116 assay, powder confirmation

| Compound | HDAC-Glo: Efficacy, HCT116 (HDAC I/II [1]; cherry-pick confirmation) | Efficacy, HDAC-Glo I/II HCT116 assay (HDAC I/II [1]; powder confirmation) | IC50 (HDAC I/II [1]; [5]) [nM] | IC50 (HDAC I/II [1]; [6]) [nM] | HDAC-Glo: Efficacy, hNSC (HDAC I/II [2]) [%] | IC50 (HDAC I/II [2]) [nM] | Viability: IC50, hNSC (human neural stem cells) | Viability: IC50, HCT116 (HCT116 cells) | further results |
| --- | --- | --- | --- | --- | --- | --- | --- | --- | --- |
| O=C(CCCCCN1C(=O)c2cccc3cccc(c23)C1=O)NO [Scriptaid] | 123 ± 3% | 93 ± 1% | 1870 ± 220 | 1760 ± 240 | 113 ± 6 | 1190 ± 250 | Inactive | Inactive | inhibition against all class I and II HDAC enzymes [3]: over 80%; inhibition of HDAC isoforms (in words) [3]: inhibited activities of all isoforms |
| c1ccc2[nH]c(-c3cscn3)nc2c1 [thiabendazole] | – | – | – | – | – | – | – | – | HDAC activity inhibited, HDAC-Glo I/II (HDAC I/II [1]): more than half |
| O=C(Nc1ccc([N+](=O)[O-])cc1Cl)c1cc(Cl)ccc1O [Niclosamide] | 112 ± 2% | 98 ± 1% | 2380 ± 160 | 2080 ± 170 | 102 ± 4 | 1400 ± 240 | Inactive | Inactive | – |
| O=C(/C=C/c1ccc(O)cc1)c1ccc(O)cc1O [Isoliquiritigenin] | 110 ± 3% | 97 ± 0% | 1670 ± 190 | 2360 ± 110 | 117 ± 5 | 2020 ± 130 | Inactive | Inactive | inhibition of HDAC isoforms (in words) [3]: weakly inhibited many class I and II HDAC enzymes |
| C[C@@H]1NC(=O)[C@H]2CCCN2C(=O)[C@H](CCCCCC(=O)[C@@H]2CO2)NC(=O)[C@@H](C)NC1=O [HC Toxin] | – | – | – | – | – | – | – | – | HDAC I/II inhibitory activity (in words) (HDAC I/II [1]): identified |
| CCC(=O)CCCCC[C@@H]1NC(=O)[C@H]2CCCCN2C(=O)[C@H]([C@@H](C)CC)NC(=O)[C@H](Cc2cn(OC)c3ccccc23)NC1=O [apicidin] | – | – | – | – | – | – | – | – | HDAC I/II inhibitory activity (in words) (HDAC I/II [1]): identified |
| CCCSc1ccc2nc(NC(=O)OC)[nH]c2c1 [albendazole] | – | – | – | – | – | – | – | – | HDAC activity inhibited, HDAC-Glo I/II (HDAC I/II [1]): more than half |
| CC(C)c1ccc2oc3nc(N)c(C(=O)O)cc3c(=O)c2c1 [Amlexanox] | 110 ± 2% | 98 ± 0% | 1090 ± 70 | 1650 ± 360 | 96 ± 7 | 1100 ± 140 | Inactive | Inactive | – |
| Cc1oncc1C(=O)Nc1ccc(C(F)(F)F)cc1 [Leflunomide] | 118 ± 11% | 92 ± 0% | 9480 ± 1980 | 5610 ± 120 | 106 ± 2 | 5900 | Inactive | Inactive | inhibition of HDAC3 (in words) (HDAC3): selectively inhibited |
| CCCCc1nc2cc(/C=C/C(=O)NO)ccc2n1CCN(CC)CC [Pracinostat] | 114 ± 4% | – | 350 ± 60 | – | 112 ± 5 | 270 ± 60 | Inactive | Inactive | – |
| Nc1ccccc1NC(=O)c1ccc(CNC(=O)OCc2cccnc2)cc1 [entinostat] | – | – | – | – | – | – | – | – | HDAC I/II inhibitory activity (in words) (HDAC I/II [1]): identified |
| Oc1ccc(/C=C/c2cc(O)cc(O)c2)cc1 [Resveratrol] | 97 ± 13% | 69 ± 2% | 11000 ± 1980 | 18200 ± 2050 | 102 ± 4 | 7430 | Inactive | Inactive | HDAC I/II inhibitory activity (in words) (HDAC I/II [1]): identified; inhibition of HDAC-Glo I/II luminescence signals (HDAC I/II [2]): completely inhibited |
| Nc1cc(F)ccc1NC(=O)/C=C/c1cnn(C/C=C/c2ccccc2)c1 [RGFP966] | – | – | – | – | – | – | – | – | HDAC I/II inhibitory activity (in words) (HDAC I/II [1]): identified |
| O=C(CCCCCCC(=O)Nc1ccccc1)NO [Vorinostat, suberoylanilide hydroxamic acid] | 0.77 ± 0.05 (119 ± 6) % | 0.45 ± 0.04 (99 ± 0) % | – | – | 101 ± 2 | 660 ± 80 | Inactive | Inactive | – |
| Cc1nc(-c2ccc(OCC(C)C)c(C#N)c2)sc1C(=O)O [Febuxostat] | 127 ± 5% | 96 ± 1% | 2380 ± 440 | 2430 ± 270 | 116 ± 3 | 2160 ± 600 | Inactive | Inactive | inhibition of HDAC3 (in words) (HDAC3): selectively inhibited; also recorded: selective to HDAC3 |
| Nc1cc(F)ccc1NC(=O)c1ccc(CNC(=O)/C=C/c2cccnc2)cc1 [chidamide] | – | – | – | – | – | – | – | – | HDAC I/II inhibitory activity (in words) (HDAC I/II [1]): identified |
| selisistat [selisistat (EX-527)] | – | – | – | – | – | – | – | – | average IC50, HDAC-Glo I/II, assay selectivity (HDAC I/II [1]; HCT116, Figure 1C): inactive |
| CCCC(=O)[O-].[Na+] [sodium butyrate] | – | – | – | – | – | – | – | – | IC50, HDAC-Glo activity (HDAC I/II [1]): did not show concentration-dependent inhibition; IC50, HDAC-Glo activity (HDAC I/II [4]): did not show concentration-dependent inhibition |
| O=C(Oc1ccccc1)c1cccc(C(=O)Oc2ccccc2)c1 [Diphenyl isophthalate] | 112 ± 5% | 97 ± 0% | 3870 ± 810 | 5280 ± 630 | 103 ± 3 | 2240 ± 150 | Inactive | Inactive | inhibition of HDAC3 (in words) (HDAC3): selectively inhibited |
| CN(C)C(=O)COC(=O)Cc1ccc(OC(=O)c2ccc(NC(=N)N)cc2)cc1 [Camostat] | 109 ± 4% | – | 1940 ± 660 | – | 102 ± 3 | 950 ± 200 | Inactive | Inactive | inhibition of HDAC-Glo I/II luminescence signals (HDAC I/II [2]): completely inhibited |
| CC(C)[C@H](C(=O)Nc1ccc(C(=O)NO)cc1)c1ccccc1 [AR-42] | 113 ± 2% | – | 940 ± 110 | – | 115 ± 5 | 760 ± 170 | Inactive | Inactive | – |
| CCC[S+]([O-])c1ccc2[nH]c(NC(=O)OC)nc2c1 (stereo not shown) [albendazole oxide] | – | – | – | – | – | – | – | – | HDAC activity inhibited, HDAC-Glo I/II (HDAC I/II [1]): more than half |
| O=C(O)CCCc1ccccc1 [sodium phenylbutyrate] | – | – | – | – | – | – | – | – | IC50, HDAC-Glo activity (HDAC I/II [1]): did not show concentration-dependent inhibition; IC50, HDAC-Glo activity (HDAC I/II [4]): did not show concentration-dependent inhibition |
| CC(C)(C)OC(=O)Nc1ccc(-c2cc(C(=O)NCCCCCCC(=O)NO)no2)cc1 [ISOX] | 124 ± 5% | – | 2320 ± 650 | – | 118 ± 6 | 1960 ± 350 | Inactive | Inactive | – |
| CCCC(CCC)C(=O)O [valproic acid] | – | – | – | – | – | – | – | – | IC50, HDAC-Glo activity (HDAC I/II [1]): did not show concentration-dependent inhibition; IC50, HDAC-Glo activity (HDAC I/II [4]): did not show concentration-dependent inhibition |
